# According to patent publication US8609836B2, “4-aryl-2-anilino-pyrimidines” (Janssen Pharmaceutica NV, priority 2008, dated 2013):
# How the values were obtained:
# [1] = biological target: GSK3β (h) (Homo sapiens, UniProt P49841); test: GSK-3β human kinase inhibition, SPA; format: biochemical; settings: read-out: GSK3b pIC50 (converted)
# Method in brief: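 Radiometric: 33P-labelled peptide captured on streptavidin SPA beads after EDTA stop and imaged on Leadseeker. Reaction ran 1 h at RT, 1 μM cold ATP with 2 nM [γ-33P]ATP, 1 μM biotin-peptide substrate, human GSK3β 1 μg/ml, pH 7.4 Tris buffer.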
# [2] = biological target: CDK4/CyclinD1 (h) (Homo sapiens, UniProt P11802); test: CDK4/CyclinD1 human kinase inhibition, SPA with GST-pRb substrate; format: biochemical; settings: read-out: CDK4 pIC50 (converted)
# CDK4/CyclinD1 (h), sequence (P11802 whole entry): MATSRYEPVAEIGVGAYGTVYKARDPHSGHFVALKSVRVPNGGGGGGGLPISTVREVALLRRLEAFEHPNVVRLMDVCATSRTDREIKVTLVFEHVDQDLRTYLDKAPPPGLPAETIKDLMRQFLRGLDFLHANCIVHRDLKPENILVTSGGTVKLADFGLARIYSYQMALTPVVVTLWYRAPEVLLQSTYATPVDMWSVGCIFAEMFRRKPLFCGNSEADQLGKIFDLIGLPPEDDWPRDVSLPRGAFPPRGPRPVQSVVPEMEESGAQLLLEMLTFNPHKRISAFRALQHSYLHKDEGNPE
# CDK4/CyclinD1 (h), sequence (P24385 whole entry partner): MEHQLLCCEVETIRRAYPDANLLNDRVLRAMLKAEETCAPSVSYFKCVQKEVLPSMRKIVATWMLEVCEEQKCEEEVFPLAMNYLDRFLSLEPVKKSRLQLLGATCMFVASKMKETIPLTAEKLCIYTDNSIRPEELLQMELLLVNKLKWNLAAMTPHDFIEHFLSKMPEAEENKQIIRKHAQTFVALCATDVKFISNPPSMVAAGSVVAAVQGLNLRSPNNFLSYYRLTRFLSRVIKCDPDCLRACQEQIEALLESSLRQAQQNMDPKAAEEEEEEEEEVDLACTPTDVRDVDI
# Method in brief: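 Scintillation proximity format: after EDTA/Triton stop containing glutathione SPA beads, 33P incorporation was counted. The reaction ran 60 min at room temperature in Hepes pH 7.5 with NaF, MgCl2, DTT, using 2.5 μg/ml human CDK4/CyclinD1, 40 μg/ml GST-pRb substrate and 2 nM [γ-33P]ATP.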
# [3] = biological target: PLK2 (h) (Homo sapiens, UniProt Q9NYY3); test: PLK2 human kinase inhibition, SPA; format: biochemical; settings: read-out: PLK2 pIC50 (converted)
# PLK2 (h), sequence (Q9NYY3 whole entry): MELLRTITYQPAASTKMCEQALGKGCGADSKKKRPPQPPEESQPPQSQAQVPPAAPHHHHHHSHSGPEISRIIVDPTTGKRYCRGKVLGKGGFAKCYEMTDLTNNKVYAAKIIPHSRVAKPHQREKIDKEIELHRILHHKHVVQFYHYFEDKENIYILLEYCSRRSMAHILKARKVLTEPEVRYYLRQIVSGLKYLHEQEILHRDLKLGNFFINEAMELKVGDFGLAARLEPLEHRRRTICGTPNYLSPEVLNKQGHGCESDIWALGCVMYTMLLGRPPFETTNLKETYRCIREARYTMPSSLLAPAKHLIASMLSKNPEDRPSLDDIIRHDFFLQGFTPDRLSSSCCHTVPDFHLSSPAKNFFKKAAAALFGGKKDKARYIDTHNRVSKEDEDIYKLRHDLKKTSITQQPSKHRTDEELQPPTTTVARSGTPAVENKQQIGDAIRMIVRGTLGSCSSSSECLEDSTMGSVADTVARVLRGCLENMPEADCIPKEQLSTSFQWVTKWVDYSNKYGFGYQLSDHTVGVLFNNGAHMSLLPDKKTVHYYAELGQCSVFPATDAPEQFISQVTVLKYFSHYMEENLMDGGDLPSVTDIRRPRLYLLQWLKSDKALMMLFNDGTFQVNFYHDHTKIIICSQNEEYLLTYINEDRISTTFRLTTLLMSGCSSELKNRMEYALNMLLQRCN
# Method in brief: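 33P incorporation into a biotinylated peptide (2 μM) was captured on streptavidin PVT beads and imaged on Leadseeker. Enzyme at 30 μg/ml, ATP 0.1 μM with 2 nM [γ-33P]ATP, Hepes pH 8.0 with MnCl2 and DTT. Incubation was 20 min at room temperature.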
# [4] = system: U87-MG; test: Cellular proliferation assay (Alamar blue), U87-MG; format: cell-based; settings: Homo sapiens, U-87 MG; 10% FCS; 72 hours with compound; Alamar blue 6 h; read-out: U87-MG (cellular proliferation assay, Table 4) (converted)
# Method in brief: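 Growth inhibition measured after 72 h incubation with compound, following 24 h pre-culture at 37° C, 5% CO2 with 10% FCS. Resazurin-based read-out at 544/590 nm after 4 h (HCT-116), 6 h (U87-MG) or 24 h (A2780, MDA-MB-231); results relative to control.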
# GSK3β (h), sequence (P49841 whole entry): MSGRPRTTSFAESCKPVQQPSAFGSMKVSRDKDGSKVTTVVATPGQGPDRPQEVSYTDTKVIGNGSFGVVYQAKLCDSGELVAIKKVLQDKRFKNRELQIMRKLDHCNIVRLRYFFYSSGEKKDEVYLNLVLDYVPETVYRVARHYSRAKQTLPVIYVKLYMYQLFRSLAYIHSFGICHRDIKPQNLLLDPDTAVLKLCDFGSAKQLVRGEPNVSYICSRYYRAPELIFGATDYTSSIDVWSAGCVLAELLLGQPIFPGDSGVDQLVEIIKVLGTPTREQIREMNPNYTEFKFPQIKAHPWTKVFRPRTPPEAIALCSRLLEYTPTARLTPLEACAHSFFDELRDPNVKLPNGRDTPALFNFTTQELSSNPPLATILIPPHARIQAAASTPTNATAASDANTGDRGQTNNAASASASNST
Structure (SMILES),IC50 [1] [µM],IC50 [2] [µM],IC50 [3] [µM],IC50 [4] [µM]
O=C1NCc2cccc(c2)-c2ccnc(n2)Nc2ccc(N3CCOCC3)c(c2)CN2CCC[C@@H]12 [Compound 1],0.724,2.14,> 10,6.76
COc1ccc2cc1CN1CCC(CC1)C(=O)N(C)CCN(C)c1ccc(cn1)-c1ccnc(n1)N2 [Compound 4],3.63,1.91,> 10,> 10
C[C@@H]1NCc2cc(ccc2N2CCOCC2)Nc2nccc(n2)-c2ccc(cc2)OCCCNC1=O [Compound 5],0.135,1.29,> 10,> 10
O=C1NCCOc2ccc(cc2)-c2ccnc(n2)Nc2ccc(N3CCOCC3)c(c2)CN2CCC1CC2 [Compound 6],0.741,0.562,> 10,0.575
O=C1NCCCOc2ccc(cc2)-c2ccnc(n2)Nc2ccc(N3CCOCC3)c(c2)CN2CCC[C@@H]12 [Compound 7],0.372,6.46,> 10,4.37
O=C1CN2CCN(CC2)Cc2cc(ccc2N2CCOCC2)Nc2nccc(n2)-c2ccc(cc2)OCCN1 [Compound 9],1.45,7.94,> 10,1.55
CN1CCCNC(=O)[C@H](CO)NCc2cc(cc(N3CCOCC3)c2)Nc2nccc(n2)-c2ccc(cc2)C1 [Compound 10],~10,> 10,> 10,> 10
COc1ccc2cc1CN1CCN(CC1)CC(=O)N(C)CCN(C)c1ccc(cn1)-c1ccnc(n1)N2 [Compound 14],4.9,> 10,> 10,> 10
CN1CCCNC(=O)[C@@H]2CCCN2Cc2cc(cc(N3CCOCC3)c2)Nc2nccc(n2)-c2ccc(cc2)C1 [Compound 16],> 10,> 10,> 10,8.13
O=C1NCc2cccc(c2)-c2ccnc(n2)Nc2cc(CN3CCOCC3)cc(c2)CN2CCC[C@@H]12 [Compound 22],0.0309,2.75,> 10,0.234
CN(C)C(=O)c1ccc2cc1CN1CCC[C@H]1C(=O)NCc1cccc(c1)-c1ccnc(n1)N2 [Compound 24],0.0871,4.27,> 10,4.27
O=C1NCc2cccc(c2)-c2ccnc(n2)Nc2cc(CNC3CCOCC3)cc(c2)CN2CCC[C@@H]12 [Compound 29],0.112,1.23,> 10,0.457
CN(C)Cc1cc2cc(c1)Nc1nccc(n1)-c1cccc(c1)CNC(=O)[C@@H]1CCCN1C2 [Compound 30],0.024,0.891,> 10,0.145
CN(C)CCNCc1cc2cc(c1)Nc1nccc(n1)-c1cccc(c1)CNC(=O)[C@@H]1CCCN1C2 [Compound 31],0.11,1,> 10,2.24
COCCNCc1cc2cc(c1)Nc1nccc(n1)-c1cccc(c1)CNC(=O)[C@@H]1CCCN1C2 [Compound 33],0.145,1.26,> 10,0.0513
O=C1NCc2cccc(c2)-c2ccnc(n2)Nc2cc(CNC3CCCCC3)cc(c2)CN2CCC[C@@H]12 [Compound 36],0.129,1.2,> 10,0.282
COCCNC(=O)c1ccc2cc1CN1CCC[C@H]1C(=O)NCc1cccc(c1)-c1ccnc(n1)N2 [Compound 40],0.162,1.62,> 10,2.29
O=C(NC1CCCCC1)c1ccc2cc1CN1CCC[C@H]1C(=O)NCc1cccc(c1)-c1ccnc(n1)N2 [Compound 41],0.263,5.62,> 10,2.29
CN(C)CCNC(=O)c1ccc2cc1CN1CCC[C@H]1C(=O)NCc1cccc(c1)-c1ccnc(n1)N2 [Compound 42],0.331,0.457,> 10,1.82
O=C(NC1CCOCC1)c1ccc2cc1CN1CCC[C@H]1C(=O)NCc1cccc(c1)-c1ccnc(n1)N2 [Compound 46],0.204,5.75,> 10,> 10
O=C1NCCCc2cc(ccn2)-c2ccnc(n2)Nc2ccc(N3CCOCC3)c(c2)CN2CCCC12 (centres unmarked) [Compound 48],9.12,> 10,> 10,> 10

Structure (SMILES),IC50 [1] [µM],IC50 [2] [µM],IC50 [3] [µM],IC50 [4] [µM]
CN1CCNC(=O)C2CCN(CC2)Cc2cc(Br)cc(c2)Nc2nccc(n2)-c2ccc(cc2)C1 [Compound 60],2.75,> 10,> 10,2.57
CC(C)Nc1cc2cc(c1)Nc1nccc(n1)-c1ccc(cc1)CN(C)CCNC(=O)C1CCN(CC1)C2 [Compound 61],7.59,7.41,> 10,5.62
CN1CCNC(=O)C2CCN(CC2)Cc2cc(cc(N3CCOCC3)c2)Nc2nccc(n2)-c2ccc(cc2)C1 [Compound 68],5.89,> 10,> 10,7.59
COc1ccc2cc1CN(C)CCCNC(=O)C1CCN(CC1)Cc1cc(cc(NC(C)C)c1)Nc1nccc-2n1 [Compound 70],> 10,> 10,> 10,9.12
CN1CCCNC(=O)C2CCN(CC2)Cc2cc(cc(N3CCOCC3)c2)Nc2nccc(n2)-c2ccc(cc2)C1 [Compound 72],> 10,> 10,> 10,6.17
COc1ccc2cc1CN(C)CCNC(=O)C1CCN(CC1)Cc1cc(cc(NC(C)C)c1)Nc1nccc-2n1 [Compound 75],> 10,> 10,> 10,5.13
COc1ccc2cc1CN(C)CCCNC(=O)C1CCN(CC1)Cc1cc(Br)cc(c1)Nc1nccc-2n1 [Compound 76],> 10,> 10,> 10,7.24
COc1ccc2cc1CN(C)CCNC(=O)C1CCN(CC1)Cc1cc(cc(N3CCOCC3)c1)Nc1nccc-2n1 [Compound 77],3.8,> 10,> 10,> 10
CN1CCCNC(=O)C2CCN(CC2)Cc2cccc(c2)Nc2nccc(n2)-c2ccc(cc2)C1 [Compound 78],> 10,> 10,> 10,7.08
COc1ccc2cc1CN(C)CCCNC(=O)C1CCN(CC1)Cc1cc(cc(N3CCOCC3)c1)Nc1nccc-2n1 [Compound 80],> 10,> 10,> 10,> 10
COc1ccc2cc1CN(C)CCCNC(=O)C1CCN(CC1)Cc1cccc(c1)Nc1nccc-2n1 [Compound 81],> 10,> 10,> 10,> 10
CN1CCNC(=O)C2CCN(CC2)Cc2cccc(c2)Nc2nccc(n2)-c2ccc(cc2)C1 [Compound 82],> 10,> 10,> 10,> 10
COc1ccc2cc1CN(C)CCNC(=O)C1CCN(CC1)Cc1cccc(c1)Nc1nccc-2n1 [Compound 83],> 10,> 10,> 10,> 10
O=C1NCCNc2cc(ccn2)-c2ccnc(n2)Nc2ccc(N3CCOCC3)c(c2)CN2CCC1CC2 [Compound 84],1.55,7.24,> 10,9.33
C[C@H]1NCc2cc(ccc2N2CCOCC2)Nc2nccc(n2)-c2ccc(cc2)OCCCNC1=O [Compound 86],0.0692,0.49,> 10,> 10
C[C@H]1NCc2cc(ccc2N2CCOCC2)Nc2nccc(n2)-c2cccc(c2)OCCCNC1=O [Compound 87],0.214,1.26,> 10,6.17
C[C@@H]1NCc2cc(ccc2N2CCOCC2)Nc2nccc(n2)-c2cccc(c2)OCCCNC1=O [Compound 88],0.195,1.41,> 10,3.55
O=C1NCCCOc2cccc(c2)-c2ccnc(n2)Nc2ccc(N3CCOCC3)c(c2)CN[C@H]1CO [Compound 89],0.589,3.63,> 10,> 10
O=C1NCCCOc2cccc(c2)-c2ccnc(n2)Nc2ccc(N3CCOCC3)c(c2)CN[C@H]1Cc1ccccc1 [Compound 91],2.69,> 10,> 10,> 10
O=C1NCCCOc2ccc(cc2)-c2ccnc(n2)Nc2ccc(N3CCOCC3)c(c2)CN2CCC1CC2 [Compound 92],1.32,0.891,> 10,0.178
